The subject of series [1] is isolated mitochondria. Description: Mitochondrial swelling (absorbance 540 nm or light scattering 570 nm). The class given is biochemical, mouse. Conditions: 50 μM peptide, light scattering at 570 nm. The protocol: (§1) MPT pore opening results in mitochondrial swelling. We examined the effects of [Dmt^1]DALDA on mitochondrial swelling by measuring reduction in absorbance at 540 nm (A540). The mitochondrial suspension was then centrifuged and cytochrome c in the mitochondrial pellet and supernatant determined by a commercially-available ELISA kit.
(§2) The methods for study are as described above for SS-02. In this example, mitochondrial swelling was measured using light scattering monitored at 570 nm.

The subject of another series is N2A cells. Briefly: tBHP-induced mitochondrial depolarization (TMRM, confocal). Conditions: 50 μM tBHP, 1 nM peptide, 6 h. The class given is cell-based. On the procedure:
FIG. 7. SS-31 protected against tBHP-induced mitochondrial depolarization and viability. N2A cells were plated in glass bottom dishes and treated with (A) control, or with (B) 50 μM tBHP, alone or with (e) 1 nM SS-31, for 6 hours. Cells were loaded with TMRM (20 nM) and imaged by confocal laser scanning microscopy using ex/em of 552/570 nm.
To investigate whether SS-31 prevents mitochondria) depolarization caused by tBHP, N2A cells were treated with 50 μM tBHP for 6 h.

Series [2] has as its system Sprague-Dawley rats. Briefly: Assessment of arrhythmias in infarction/reperfusion. It counts as in vivo, rat. Conditions: 3 mg/kg IP twice, entire study period. The protocol:
(§3) Adult male […] rats (F344 strain, National Institute of Aging, maintained by Harian Sprague-Dawley Inc.), weighting between 285 and 425 gm, were used. […]
An ECG was recorded continuously from a standard lead II (AC AMP 700) inserted into the limbs of all rats. […] The cardiac arrhythmias were monitored and assessed in accordance with the Lambeth Convention. […] A validated score was used to quantify the severity of cardiac arrhythmias. […]
All values are expressed as mean±standard error of mean (S.E.M.). […] Differences among groups in body weight, heart rate, arrhythmia, area at risk as a percentage of the left ventricle, and area of infarction as a percentage of the area at risk were analyzed using ANOVA. If significant differences were detected, comparisons between the control group and the 2 treatment groups were conducted using the Mann-Whitney U-test. […]

For series [3], the system named is Sprague-Dawley rats. Briefly: Myocardial infarction/reperfusion, area at risk and area of infarction. The class given is in vivo, rat. Conditions: 3 mg/kg IP 30 min before ligation and 5 min before reperfusion; 1 h ischemia, 1 h reperfusion. On the procedure: as §3
After anesthesia with ketamine (90 mg/kg IP) and xylazine (4 mg/kg IP), a tracheotomy was performed, and the rat was intubated with polyethylene tube and ventilated (Harvard Rodent Ventilator model 683) with room air and a tidal volume of 0.65 ml/100 gm of body weight at 90 breaths per minute. […] Peripheral limb electrodes were inserted subcutaneously and electrocardiogram was monitored throughout the procedure. […]
At the end of reperfusion, the left coronary artery was briefly re-occluded and Evans blue dye solution (2 ml of 2%, Sigma) was slowly injected into the jugular vein to distinguish the perfused area (blue staining) from the area at risk (no staining). […] After a 14-day formalin immersion, the slices were scanned again and all scanned areas were quantified with NIH Imagesoftware. […]

The subject of series [4] is isolated perfused guinea pig heart. Briefly: Ischemia-reperfusion myocardial stunning in isolated perfused heart (Langendorff). To be noted: 1 nM. The protocol:
Guinea pig hearts were rapidly isolated, and the aorta was cannulated in situ and perfused in a retrograde fashion with an oxygenated Krebs-Henseleit solution (pH 7.4) at 34° C. The heart was then excised, mounted on a modified Langendorff perfusion apparatus, and perfused at constant pressure (40 cm H2O). Contractile force was measured with a small hook inserted into the apex of the left ventricle and the silk ligature tightly connected to a force-displacement transducer. Coronary flow was measured by timed collection of pulmonary artery effluent.
Reperfusion was carried out with the same solution used prior to ischemia.

The nature of series [5]: Body weight and heart rate during the infarction/reperfusion experiment. The class given is in vivo, rat. The protocol: Adult male […] rats (F344 strain, National Institute of Aging, maintained by Harian Sprague-Dawley Inc.), weighting between 285 and 425 gm, were used. Twenty-four rats (n=8/group) were randomly assigned to one of three groups: (1) Control group was given 0.4 ml of saline as an intra-peritoneal (IP) injection 30 minutes before the ligation of left anterior descending coronary artery, followed by same IP dose injection 5 minutes before reperfusion; (2) SS-31 group was treated with SS-31 (3 mg/kg dissolved in 0.4 ml of saline) as an IP injection 30 minutes before the ligation followed by same IP dose injection as maintenance 5 minutes before reperfusion; and (3) SS-20 group was treated with SS-20 (3 mg/kg dissolved in 0.4 ml of saline) as an IP injection 30 minutes before the ligation followed by same dose IP injection as maintenance just 5 minutes before reperfusion. Also, Sham-operated rats (n=3) were used to account for possible effects related to the surgical protocol. All procedures were performed in a blinded manner, with the groups assigned letters and their identities unknown to the operators. Likewise, the two independent investigators analyzing the data were blind to the treatment assignments.
After anesthesia with ketamine (90 mg/kg IP) and xylazine (4 mg/kg IP), a tracheotomy was performed, and the rat was intubated with polyethylene tube and ventilated (Harvard Rodent Ventilator model 683) with room air and a tidal volume of 0.65 ml/100 gm of body weight at 90 breaths per minute. Body temperature was maintained at 37° C. by using a heated operating table. The internal jugular vein was surgically exposed and a polyethylene tube was inserted for Evans blue dye solution injection. Peripheral limb electrodes were inserted subcutaneously and electrocardiogram was monitored throughout the procedure.
An ECG was recorded continuously from a standard lead II (AC AMP 700) inserted into the limbs of all rats. The ECG was printed at 25 mm/second. The cardiac arrhythmias were monitored and assessed in accordance with the Lambeth Convention. The assessment was performed in a blinded manner using the original paper recordings. A validated score was used to quantify the severity of cardiac arrhythmias. The score consisted of six types: 0, no ventricular extrasystoles (VES), ventricular tachycardia (VT) or ventricular fibrillation (VF); 1=VES; 2=one to five episodes of VT (more than four coupled VES); 3=more than five episodes of VT and/or one VF; 4=two to five episodes of VF; 5=more than five episodes of VF.
All values are expressed as mean±standard error of mean (S.E.M.). Statistical analyses were performed using SPSS version 10. Differences among groups in body weight, heart rate, arrhythmia, area at risk as a percentage of the left ventricle, and area of infarction as a percentage of the area at risk were analyzed using ANOVA. If significant differences were detected, comparisons between the control group and the 2 treatment groups were conducted using the Mann-Whitney U-test. A two-tailed p<0.05 was regarded as significant.

Series [6] relates to isolated mitochondria. Briefly: Cytochrome c release from isolated mitochondria (ELISA). The class given is biochemical, mouse. To be noted: Ca2+ overload. On the procedure: as §1, §2
Series [7] relates to mitochondrial permeability transition (MPT) in isolated mitochondria. Briefly: Mitochondrial membrane potential and MPT measured with TMRM. The class given is biochemical, mouse. To be noted: pretreatment 10 μM. On the procedure:
In addition to having no direct effect on mitochondrial potential, [Dmt^1]DALDA was able to protect against MPT induced by Ca^2+ overload.
3-Nitropropionic acid (3NP) is an irreversible inhibitor of succinate dehydrogenase in complex II of the electron transport chain. Addition of 3NP (1 mM) to isolated mitochondria caused dissipation of mitochondrial potential and onset of MPT (FIG. 2C).

SMILES strings stand for the structures. “Also recorded” adds a separate entry of the source. Non-standard residues stand in square brackets, D forms with d. Residues, ends and D or L forms follow the SMILES beside them. Dmt = Cc1cc(O)cc(C)c1C[C@H](N)C(=O)O

Consider `Cc1cc(O)cc(C)c1C[C@H](NC(=O)[C@H](N)CCCNC(=N)N)C(=O)N[C@@H](CCCCN)C(=O)N[C@@H](Cc1ccccc1)C(N)=O` [SS-31, D-Arg-2′6′Dmt-Lys-Phe-NH2] (H-[dR][Dmt]KF-NH2; N-terminus assumed), for which, in the series with isolated mitochondria [1], the “mitochondrial swelling induced by Ca2+” value is listed as “same ability to protect; also recorded: inhibited mitochondrial swelling”. The “tBHP-induced loss of mitochondrial potential (TMRM fluorescence)” value in the series on N2A cells is on record as “completely blocked; also recorded: protected”. Further, in the series on Sprague-Dawley rats [2], the “Severity and occurrence rate of cardiac arrhythmias (score)” value turned out to be 5 points. In addition, in the series with Sprague-Dawley rats [3], the “AAR/LV ratio (area at risk relative to left ventricle)” value was found to be 55.9±1.4% and the “AI/AAR ratio (area of infarction as percentage of area at risk)” value was found to be 53.9±1.1%. In addition, in series [4], the cardiac stunning result is recorded as “complete inhibition of cardiac stunning”, the “coronary flow throughout reperfusion” value is reported as “well-sustained” and the heart rate result is “no decrease”. Also, the “myocardial contractile force during ischemia-reperfusion” value in series [4] (30 min global ischemia) was “tolerated ischemia much better than buffer-treated hearts; also recorded: protects myocardial contractile force”. The “Heart Rate Baseline” value in series [5] (Baseline) was 257 ± 10. In series [5] (first column), the “Heart Rate Ischemia” value is on record as 184 ± 14 and the “Heart Rate Reperfusion” value stood at 161 ± 12. Further, in series [5] (second column), the “Heart Rate Ischemia” value was 169 ± 15 and the “Heart Rate Reperfusion” value came out at 164 ± 13. The “Heart Rate Open chest” value in series [5] (Open chest) turned out to be 236 ± 8. Besides, in the series on isolated mitochondria [6], the “Ca2+-induced release of cytochrome c” value is “same ability to protect”. The “MPT induced by Ca2+ overload” value in series [7] is on record as “same ability to protect; also recorded: prevents onset of MPT”.
